The numbers were not newly measured in US20220080043A1, “OIL/SURFACTANT MIXTURES FOR SELF-EMULSIFICATION” (priority 2019, published 2022), which cites them from elsewhere.

For the series the following is noted: Table 2; surfactants used.

sorbitan monooleate [Span80]: the HLB is 4.3.
